# Experimental data reported in patent US10604512B2, “3-(1H-indol-2-yl)-1H-indazoles and therapeutic uses thereof” (Samumed, LLC, priority 2015, dated 2020).
# Assays:
# Assay type in all cases: cell-based
# [1] = tested on: Primary human fibroblasts derived from IPF patients (LL29 cells) treated with TGF-β1; assay: Inhibition of the fibrotic process: αSMA staining in TGF-β1-treated primary human fibroblasts from IPF patients (LL29 cells); conditions: Fibroblast, 96 h, % αSMA-positive LL29 cells, TGF-β1 20 ng/mL, 4 days
# Source text: Representative compounds were screened using primary human fibroblasts (derived from IPF patients) treated with TGF-β1 to determine their ability to inhibit the fibrotic process.
# Primary human fibroblasts derived from IPF patients (LL29 cells) [^1Xiaoqiu Liu, et. al., “Fibrotic Lung Fibroblasts Show Blunted Inhibition by cAMP Due to Deficient cAMP Response Element-Binding Protein Phosphorylation”, Journal of Pharmacology and Experimental Therapeutics (2005), 315(2), 678-687; ^2Watts, K. L., et. al., “RhoA signaling modulates cyclin D1 expression in human lung fibroblasts; implications for idiopathic pulmonary fibrosis”, Respiratory Research (2006), 7(1), 88] were obtained from American Type Culture Collection (ATCC) and expanded in F12 medium supplemented with 15% Fetal Bovine Serum and Penicillin/Streptomycin.
# Each compound was dissolved in DMSO as a 10 mM stock and used to prepare compound source plates. Serial dilution (1:2, 11-point dose-response curves from 10 μM to […]) and compound transfer was performed using the ECHO 550 (Labcyte, Sunnyvale, Calif.) into 384-well clear bottom assay plates (Greiner Bio-One) with appropriate DMSO backfill for a final DMSO concentration of 0.1%. LL29 cells are plated at 1,500 cells/well in 80 μL/well F12 medium supplemented with 1% Fetal Bovine Serum. One hour after addition of the cells, TGF-β1 (Peprotech; 20 ng/mL) was added to the plates to induce fibrosis (ref 1 and 2 above). Wells treated with TGF-β1 and containing DMSO were used as controls. Cells were incubated at 37° C. and 5% CO2 for 4 days. Following incubation for 4 days, SYTOX green nucleic acid stain (Life Technologies [Thermo Fisher Scientific]) was added to the wells at a final concentration of 1 μM and incubated at room temperature for 30 min. Cells were then fixed using 4% formaldehyde (Electron Microscopy Sciences), washed 3 times with PBS followed by blocking and permeabilization using 3% Bovine Serum Albumin (BSA; Sigma) and 0.3% Triton X-100 (Sigma) in PBS. Cells were then stained with antibody specific to α-smooth muscle actin (αSMA; Abcam) (ref 1 and 2 above) in 3% Bovine Serum Albumin (BSA; Sigma) and 0.3% Triton X-100 (Sigma) in PBS, and incubated overnight at 4° C. Cells were then washed 3 times with PBS, followed by incubation with Alexa Flor-647 conjugated secondary antibody (Life Technologies [Thermo Fisher Scientific]) and DAPI at room temperature for 1 hour. Cells were then washed 3 times with PBS and plates were sealed for imaging. αSMA staining was imaged by excitation at 630 nm and emission at 665 nm and quantified using the Compartmental Analysis program on the CellInsight CX5 (Thermo Scientific). Dead or apoptotic cells were excluded from analysis based on positive SYTOX green staining. % of total cells positive for αSMA were counted in each well and normalized to the average of 11 wells treated with TGF-β1 on the same plate using Dotmatics' Studies Software. The normalized averages (fold change over untreated) of 3 replicate wells for each compound concentration were used to create dose-responses curves and EC50 values were calculated using non-linear regression curve fit in the Dotmatics' Studies Software. For EC50 of >10 μM, the percent inhibition at 10 μM is provided.
# [2] = tested on: Wnt activity (Sp5-Luc reporter, TCF/LEF binding sites) in SW480 colon carcinoma cells; assay: Screening assay for Wnt activity: Sp5-Luc reporter gene assay in stably transduced SW480 colon carcinoma cells; conditions: Homo sapiens, overnight incubation, 10-point curve from 10 μM
# Source text: The screening assay for Wnt activity is described as follows. Reporter cell lines can be generated by stably transducing cancer cell lines (e.g., colon cancer) or primary cells (e.g., IEC-6 intestinal cells) with a lentiviral construct that includes a Wnt-responsive promoter driving expression of the firefly luciferase gene.
# SW480 colon carcinoma cells were transduced with a lentiviral vector expressing luciferase with a human Sp5 promoter consisting of a sequence of eight TCF/LEF binding sites. SW480 cells stably expressing the Sp5-Luc reporter gene and a hygromycin resistance gene were selected by treatment with 150 μg/mL of hygromycin for 7 days. These stably transduced SW480 cells were expanded in cell culture and used for all further screening activities. Each compound was dissolved in DMSO as a 10 mM stock and used to prepare compound source plates. Serial dilution (1:3, 10-point dose-response curves starting from 10 μM) and compound transfer was performed using the ECHO 550 (Labcyte, Sunnyvale, Calif.) into 384-well white solid bottom assay plates (Greiner Bio-One) with appropriate DMSO backfill for a final DMSO concentration of 0.1%. For Sp5-Luc reporter gene assays, the cells were plated at 4,000 cells/well in 384-well plates with medium containing 1% fetal bovine serum and incubated overnight at 37° C. and 5% CO2. Following incubation, 20 μl of BrightGlo luminescence reagent (Promega) was added to each well of the 384-well assay plates. The plates were placed on an orbital shaker for 2 min and then luminescence was quantified using the Envision (Perkin Elmer) plate reader. Readings were normalized to DMSO only treated cells, and normalized activities were utilized for EC50 calculations using the dose-response log (inhibitor) vs. response variable slope (four parameters) nonlinear regression feature available in GraphPad Prism 5.0 (or Dotmatics). For EC50 of >10 μM, the percent inhibition at 10 μM is provided.
# [3] = tested on: IL-6; assay: Inhibition of IL-6 in LPS-stimulated THP-1 human monocyte cells (HTRF); conditions: IL-6 inhibition, LPS-stimulated THP-1 cells, HTRF
# Procedure: Human monocyte cell line (THP-1 cells; Catalog # TIB-202, ATCC, Manassas, Va.) were cultured in Roswell Park Memorial Institute (RPMI) 1640 Medium (Catalog #21870-100, Buffalo, N.Y.) with 1% L-glutamine, 1% HEPES, 1% Sodium Pyruvate, 2% Sodium Bicarbonate supplemented with 100 units/mL penicillin, 50 μg/mL streptomycin, 2-mercaptoethanol (0.05 mM) [basal medium] and 10% fetal bovine serum (Catalog #16140089, Life Technologies, Carlsbad, Calif.) at 37° C. and 5% CO2.
# THP-1 cells were cultured in basal media with 1% FBS for 24 hours before the start of the assay. Each compound was dissolved in DMSO as a 10 mM stock and used to prepare compound source plates. Serial dilution (1:3, 10-point dose-response curves starting from 10 μM) and compound transfer was performed using the ECHO 550 (Labcyte, Sunnyvale, Calif.) into 384-well white low volume assay plates (Greiner Bio-One) with appropriate DMSO backfill for a final DMSO concentration of 0.1%. THP-1 cells were plated at 5000 cells/well in the 384-well plates and incubated at 37° C. for 2 h. 500 ng/mL of LPS was added after 2 hours and cells were incubated for another 22 hours at 37° C. Plates were spun in a centrifuge for 1 minute at […] and a mixture of anti-IL6 XL665, and anti-IL6 Cryptate diluted in reconstitution buffer (Cisbio Inc.) was added to each well. Following incubation for 3 hrs at room temperature, Homogeneous Time-Resolved Fluorescence (HTRF) was measured using the Envision (Perkin Elmer) at 665 nm and […]. The ratio of fluorescence at 665 nm to 620 nm was used as a readout for IL6 quantification. All samples were processed in duplicate. Readings were normalized to DMSO treated cells and normalized activities were utilized for EC50 calculations using the dose-response log (inhibitor) vs. response variable slope (four parameters) nonlinear regression feature available in GraphPad Prism 5.0 (or Dotmatics). For EC50 of >10 μM, the percent inhibition at 10 μM is provided.
# [4] = tested on: SW480 colon cancer cells; assay: Cell viability assay (CellTiter-Blue) in SW480 colon cancer cells; conditions: Homo sapiens, 96 h, four days, CellTiter-Blue
# Procedure: Representative compounds were screened using the following assay procedure to assess the effect on cell viability as described below.
# Each compound was dissolved in DMSO as a 10 mM stock and used to prepare compound source plates. Serial dilution (1:3, 8-point dose-response curves from 10 μM to 0.0045 μM) and compound transfer was performed using the ECHO 550 (Labcyte, Sunnyvale, Calif.) into 96-well clear bottom, black-walled plates (Corning-Costar).
# Approximately 2×10^3 SW480 colon cancer cells were seeded into each well and allowed to incubate in the presence or absence of compound for four days at 37° C./5% CO2. Eight replicates of DMSO-treated cells served as controls and cells treated with compound were performed in duplicate.
# After incubation, 20 μL of CellTiter-Blue (Promega) was added to each well allowed to incubate for approximately 3 hours. This reagent was a buffered solution which contains resazurin, metabolically active cells were able to reduce rezarurin (blue) into resorufin (pink) which was highly fluorescent. This measured fluorescence was used as a readout for cell viability.
# After incubation, the plates were read at Ex 560 nm Em 590 nm (Cytation 3, BioTek). Dose-response curves were generated and EC50 concentration values were calculated using non-linear regression curve fit in the GraphPad Prism (San Diego, Calif.) or Dotmatics' Studies Software (Bishops Stortford, UK). For EC50 of >10 μM, the percent inhibition at 10 μM is provided.
SMILES,EC50 [2],EC50 [3],EC50 [4],EC50 [1]
"CC(C)(C)C(=O)Nc1cncc(-c2ccc3[nH]nc(-c4cc5c(-c6ccncc6)cccc5[nH]4)c3c2)c1 [Compound 120, N-(5-(3-(4-(Pyridin-4-yl)-1H-indol-2-yl)-1H-indazol-5-yl)pyridin-3-yl) pivalamide]",600 nM,445 nM,1450 nM,218 nM
"CCNCc1cncc(-c2ccc3[nH]nc(-c4cc5c(-c6ccccn6)cccc5[nH]4)c3c2)c1 [Compound 146, N-((5-(3-(4-(Pyridin-2-yl)-1H-indol-2-yl)-1H-indazol-5-yl)pyridin-3-yl)methyl)ethanamine]",525 nM,529 nM,1000 nM,1410 nM
"c1ccc(CNCc2cncc(-c3ccc4[nH]nc(-c5cc6c(-c7ccccn7)cccc6[nH]5)c4c3)c2)cc1 [Compound 164, N-Benzyl-1-(5-(3-(4-(pyridin-2-yl)-1H-indol-2-yl)-1H-indazol-5-yl)pyridin-3-yl)methanamine]",564 nM,214 nM,2290 nM,191 nM
"Cc1ccncc1-c1ccc2[nH]nc(-c3cc4c(N5CCCCC5)cccc4[nH]3)c2c1 [Compound 173, 5-(4-Methylpyridin-3-yl)-3-(4-(piperidin-1-yl)-1H-indol-2-yl)-1H-indazole]",865 nM,4310 nM,1980 nM,1780 nM
"O=C(Cc1ccccc1)Nc1cncc(-c2ccc3[nH]nc(-c4cc5c(N6CCCCC6)cccc5[nH]4)c3c2)c1 [Compound 178, 2-Phenyl-N-(5-(3-(4-(piperidin-1-yl)-1H-indol-2-yl)-1H-indazol-5-yl)pyridin-3-yl)acetamide]",811 nM,1290 nM,3720 nM,989 nM

# Stronger by EC50 [2], values ahead:
EC50 [2],EC50 [3],EC50 [4],SMILES,EC50 [1]
475 nM,174 nM,1870 nM,"CC(C)(C)CC(=O)Nc1cncc(-c2ccc3[nH]nc(-c4cc5c(-c6cccnc6)cccc5[nH]4)c3c2)c1 [Compound 100, 3,3-Dimethyl-N-(5-(3-(4-(pyridin-3-yl)-1H-indol-2-yl)-1H-indazol-5-yl)pyridin-3-yl)butanamide]",449 nM
110 nM,174 nM,597 nM,"O=C(Nc1cncc(-c2ccc3[nH]nc(-c4cc5c(-c6cccnc6)cccc5[nH]4)c3c2)c1)C1CCC1 [Compound 105, N-(5-(3-(4-(Pyridin-3-yl)-1H-indol-2-yl)-1H-indazol-5-yl)pyridin-3-yl) cyclobutanecarboxamide]",144 nM
450 nM,306 nM,1630 nM,"CC(C)CC(=O)Nc1cncc(-c2ccc3[nH]nc(-c4cc5c(-c6ccncc6)cccc5[nH]4)c3c2)c1 [Compound 114, 3-Methyl-N-(5-(3-(4-(pyridin-4-yl)-1H-indol-2-yl)-1H-indazol-5-yl)pyridin-3-yl)butanamide]",331 nM
185 nM,164 nM,918 nM,"CC(C)CC(=O)Nc1cncc(-c2ccc3[nH]nc(-c4cc5c(-c6ccccn6)cccc5[nH]4)c3c2)c1 [Compound 142, 3-Methyl-N-(5-(3-(4-(pyridin-2-yl)-1H-indol-2-yl)-1H-indazol-5-yl)pyridin-3-yl)butanamide]",312 nM
360 nM,314 nM,1740 nM,"O=C(Nc1cncc(-c2ccc3[nH]nc(-c4cc5c(-c6ccccn6)cccc5[nH]4)c3c2)c1)C1CCCC1 [Compound 162, N-(5-(3-(4-(Pyridin-2-yl)-1H-indol-2-yl)-1H-indazol-5-yl)pyridin-3-yl) cyclopentanecarboxamide]",266 nM
469 nM,7150 nM,1840 nM,"CCCC(=O)Nc1cncc(-c2ccc3[nH]nc(-c4cc5c(N6CCCCC6)cccc5[nH]4)c3c2)c1 [Compound 185, N-(5-(3-(4-(Piperidin-1-yl)-1H-indol-2-yl)-1H-indazol-5-yl)pyridin-3-yl) butyramide]",682 nM
